# Values joined by “and” are separate entries in the source; they are usually repeats but may differ in a detail not shown here. Equal values may be shown once. “Also recorded” adds a separate entry of the source. Read-outs that look alike come from different tables or passages of the source.
# Experiments:
# HCMV strain AD 169 [1] = assay: Rabbit model of HCMV chorioretinitis (Example 5); format: in vivo, pigmented rabbit
# Method: A total of 32 pigmented rabbits were used in this study. Animals were evaluated by slit lamp and indirect ophthalmoscopy to determine normal ocular morphology and lack of preexisting pathology. Animals were handled as follows:
# [1] On day 0, all rabbits were inoculated by mid-vitreal injection of 10^5 PFU HCMV strain AD 169 in 100 μl.
# [2] Animals were maintained in individual cages and developing chorioretinal HCMV disease was monitored daily. On day 2 PI, HCMV-inoculated animals were divided into 8 groups of 4 rabbits each with matched chorioretinal disease scores. The HCMV-infected rabbits received intravenous therapy as indicated below:
# Group #1--4 animals, intravenous injection of high dose experimental drug (50 mg/kg) daily from day 2 through 10 PI. A total of 9 IV injections.
# Group #3--4 animals, intravenous injection of low dose experimental drug (20 mg/kg) daily from day 2 through 10 PI. A total of 9 IV injections.
# Group #4--4 animals, intravenous injection of high dose experimental drug (50 mg/kg) daily from day 2 through 10 PI (a total of 9 IV injections) plus high dose DHPG 10 mg/kg/day in 2 divided doses from day 2 through 10 PI (a total of 18 IV injections).
# Group #5--4 animals, intravenous injection of high dose experimental drug (50 mg/kg) daily from day 2 through 10 PI (a total of 9 IV injections) plus low dose DHPG 5 mg/kg/day in 2 divided doses from day 2 through 10 PI (a total of 18 IV injections).
# Group #6--4 animals, intravenous injection of low dose experimental drug (20 mg/kg) daily from day 2 through 10 PI (a total of 9 IV injections) plus low dose DHPG 5 mg/kg/day in 2 divided doses from day 2 through 10 PI (a total of 18 IV injections).
# Group #7--4 animals, intravenous injection of DHPG 10 mg/kg/day in 2 divided doses from day 2 through day 10 PI. A total of 18 IV injections.
# Group #8--4 animals, intravenous injection of sterile saline on days 2 through 10 PI.
# [3] All animals received daily indirect ophthalmoscopic examinations to evaluate clinical HCMV disease progression (From days 2 through 10 PI). The indirect ophthalmoscopic examinations were performed independently by two readers who were masked as to the therapy that the rabbits were receiving.
# [4] All animals were sacrificed on day 12 PI. Chorioretina and iris tissues and vitreous samples will be removed and processed for HCMV recovery by cell sonicate assay on Hs68 cell monolayers. Selected ocular and lung tissue samples were processed for histochemistry to evaluate HCMV-induced ocular pathology in treated and non-treated groups.
# The clinical, virus recovery and histological efficacy results for all drug-treated intravenous therapy groups were correlated with each other and with the placebo therapy group.
# HCMV strain AD 169 [2] = assay: Rabbit HCMV ascending dose efficacy and time course recovery (Example 7); conditions: for Average HCMV titer / HCMV Recovered, OD / HCMV Recovered, OS / HCMV Titer, OD / HCMV Titer, OS / HCMV recovery frequency / Optic neuritis score (ONH) / Vitreo-retinal score: PALA 50 or DHPG 10 mg/kg/d; for Vitreo-retinal score: sum of both eyes
# HCMV strain AD169 = format: cell-based
# clinical HCMV isolate = format: cell-based
# [3] = PALA 50 daily, DHPG 10/day, or PALA 50 + DHPG 10 or 5 mg/kg i.v.
compound,measurement,setting,value
"Nc1nc(O)c2ncn(COC(CO)CO)c2n1 [DHPG, reference compound]",HCMV recovery day 12 PI,HCMV strain AD 169 [1]; [3],No HCMV was recovered
same,clinical efficacy,HCMV strain AD 169 [1]; [3],did reduce the development of HCMV chorioretinal infection and disease; also recorded: effective in reducing the severity of HCMV-induced chorioretinal disease
same,lung appearance at sacrifice,HCMV strain AD 169 [1]; [3],the lungs appeared normal
same,vitreitis severity,HCMV strain AD 169 [1]; [3],moderate levels from day 4 through day 10 PI
same,eyes with stabilized chorioretinal disease,"HCMV strain AD 169 [1]; by day 6-7 PI, DHPG 10 mg/kg/day",70%
same,clinical disease / efficacy,HCMV strain AD 169 [2]; PALA 50 or DHPG 10 mg/kg/day i.v.,did reduce the development of HCMV-induced optic nerve disease severity; also recorded: vitreitis was only marginally affected
same,Average HCMV titer,HCMV strain AD 169 [2]; day 3,10^3 pfu
same,"HCMV Recovered, OD",HCMV strain AD 169 [2]; day 3,+
same,"HCMV Recovered, OS",HCMV strain AD 169 [2]; day 3,- and +
same,"HCMV Titer, OD",HCMV strain AD 169 [2]; day 3,10^4 pfu
same,"HCMV Titer, OS",HCMV strain AD 169 [2]; day 3,10^3 pfu
same,HCMV recovery frequency,HCMV strain AD 169 [2]; day 3,3/4
same,Optic neuritis score (ONH),HCMV strain AD 169 [2]; day 3,5.0 and 4.0
same,Vitreo-retinal score,HCMV strain AD 169 [2]; day 3,4.75 and 5.0
same,"HCMV Recovered, OD",HCMV strain AD 169 [2]; day 4,+
same,"HCMV Recovered, OS",HCMV strain AD 169 [2]; day 4,-
same,"HCMV Titer, OD",HCMV strain AD 169 [2]; day 4,10^2 pfu and 10^3 pfu
same,HCMV recovery frequency,HCMV strain AD 169 [2]; day 4,2/4
same,Optic neuritis score (ONH),HCMV strain AD 169 [2]; day 4,6.0 and 5.0
same,Vitreo-retinal score,HCMV strain AD 169 [2]; day 4,3.75 and 5.75
same,Average HCMV titer,HCMV strain AD 169 [2]; day 5,10^2 pfu
same,"HCMV Recovered, OD",HCMV strain AD 169 [2]; day 5,- and +
same,"HCMV Recovered, OS",HCMV strain AD 169 [2]; day 5,+ and -
same,"HCMV Titer, OD",HCMV strain AD 169 [2]; day 5,10^2 pfu
same,"HCMV Titer, OS",HCMV strain AD 169 [2]; day 5,10^2 pfu
same,HCMV recovery frequency,HCMV strain AD 169 [2]; day 5,2/4
same,Optic neuritis score (ONH),HCMV strain AD 169 [2]; day 5,4.0 and 5.0
same,Vitreo-retinal score,HCMV strain AD 169 [2]; day 5,4.0 and 5.0
same,Average HCMV titer,HCMV strain AD 169 [2]; day 6,10^1 pfu
same,"HCMV Recovered, OD",HCMV strain AD 169 [2]; day 6,-
same,"HCMV Recovered, OS",HCMV strain AD 169 [2]; day 6,- and +
same,"HCMV Titer, OD",HCMV strain AD 169 [2]; day 6,10^2 pfu
same,HCMV recovery frequency,HCMV strain AD 169 [2]; day 6,1/4
same,Optic neuritis score (ONH),HCMV strain AD 169 [2]; day 6,2.0
same,Optic neuritis score (ONH),HCMV strain AD 169 [2]; day 7,2.0
same,Vitreo-retinal score,HCMV strain AD 169 [2]; day 7,3.25 and 5.5
same,"HCMV Recovered, OD",HCMV strain AD 169 [2]; day 12,-
same,"HCMV Recovered, OS",HCMV strain AD 169 [2]; day 12,-
same,EC50,"HCMV strain AD169; Human betaherpesvirus 5, AD169, Hs68, AD 169, read-out: ED50 (the source's name)",19 µg/mL
same,Cell associated HCMV titer,HCMV strain AD169; day 0 PI,10^2 PFU/ml
same,Cell free (supernatant) HCMV titer,HCMV strain AD169; day 0 PI,10^5 PFU/ml
same,Cell associated HCMV titer,HCMV strain AD169; day 1 PI,10^2 PFU/ml
same,Cell free (supernatant) HCMV titer,HCMV strain AD169; day 1 PI,10^1 PFU/ml
same,Cell associated HCMV titer,HCMV strain AD169; day 2 PI,10^1 PFU/ml
same,Cell free (supernatant) HCMV titer,HCMV strain AD169; day 2 PI,10^1 PFU/ml
same,Cell associated HCMV titer,HCMV strain AD169; day 3 PI,10^1 PFU/ml
same,Cell free (supernatant) HCMV titer,HCMV strain AD169; day 3 PI,10^1 PFU/ml
same,Cell associated HCMV titer,HCMV strain AD169; day 4 PI,10^1 PFU/ml
same,Cell free (supernatant) HCMV titer,HCMV strain AD169; day 4 PI,0 PFU/ml
same,Cell associated HCMV titer,HCMV strain AD169; day 5 PI,0 PFU/ml
same,Cell free (supernatant) HCMV titer,HCMV strain AD169; day 5 PI,0 PFU/ml
same,Cell associated HCMV titer,HCMV strain AD169; day 6 PI,10^1 PFU/ml
same,Cell associated HCMV titer,HCMV strain AD169; day 7 PI,0 PFU/ml
same,reduction of HCMV titer,clinical HCMV isolate,effective in reducing the titer
same,Cell associated HCMV titer,clinical HCMV isolate; day 0 PI,10^2 PFU/ml
same,Cell free (supernatant) HCMV titer,clinical HCMV isolate; day 0 PI,10^5 PFU/ml
same,Cell associated HCMV titer,clinical HCMV isolate; day 1 PI,10^3 PFU/ml
same,Cell free (supernatant) HCMV titer,clinical HCMV isolate; day 1 PI,10^1 PFU/ml
same,Cell associated HCMV titer,clinical HCMV isolate; day 2 PI,10^2 PFU/ml
same,Cell free (supernatant) HCMV titer,clinical HCMV isolate; day 2 PI,10^1 PFU/ml
same,Cell associated HCMV titer,clinical HCMV isolate; day 3 PI,10^1 PFU/ml
same,Cell free (supernatant) HCMV titer,clinical HCMV isolate; day 3 PI,10^1 PFU/ml
same,Cell associated HCMV titer,clinical HCMV isolate; day 4 PI,10^1 PFU/ml
same,Cell free (supernatant) HCMV titer,clinical HCMV isolate; day 4 PI,10^1 PFU/ml
same,Cell associated HCMV titer,clinical HCMV isolate; day 5 PI,0 PFU/ml
same,Cell free (supernatant) HCMV titer,clinical HCMV isolate; day 5 PI,0 PFU/ml
same,Cell associated HCMV titer,clinical HCMV isolate; day 6 PI,10^1 PFU/ml
same,Cell associated HCMV titer,clinical HCMV isolate; day 7 PI,10^1 PFU/ml

# Source: US5491135A (priority 1993, dated 1996)
